Results on 1 compound are retold here after ChEMBL document CHEMBL5154690, “Discovery of a tricyclic farnesoid X receptor agonist HEC96719, a clinical candidate for treatment of non-alcoholic steatohepatitis” (Eur J Med Chem, 2022).

Active and inactive are the calls of the source. Some results are limits rather than exact numbers.

Series [1] can be described thus: AUC (0 to t) in male Sprague-Dawley rat at 5 mg/kg, po measured by LC-MS/MS analysis. Also noted: dose 5 mg/kg, route po. Particulars: in vivo. In kind it is ADME, organism-based.
Series [2] in a line: AUC (0 to t) in male Sprague-Dawley rat at 1 mg/kg, iv measured by LC-MS/MS analysis. In kind it is ADME, organism-based. On the set-up: dose 1 mg/kg, route iv. Particulars: in vivo.
Series [3] can be described thus: Clearance in male Sprague-Dawley rat at 1 mg/kg, iv measured by LC-MS/MS analysis. In kind it is ADME, organism-based. The following applies: in vivo.
For a further series, the system named is Mus musculus. Nature of the series: Anti-NASH activity against high fat (HF) diet-induced nonalcoholic steatohepatitis in leptin-deficient ob/ob mouse model assessed as reduction in liver cholesterol level at 3 mg/kg, po administered once daily from week 5 to 10. The series is classed as functional, organism-based.
The target of the next series is T1, Estrogen receptor (Homo sapiens, UniProt P03372).
T1 sequence (P03372 whole entry): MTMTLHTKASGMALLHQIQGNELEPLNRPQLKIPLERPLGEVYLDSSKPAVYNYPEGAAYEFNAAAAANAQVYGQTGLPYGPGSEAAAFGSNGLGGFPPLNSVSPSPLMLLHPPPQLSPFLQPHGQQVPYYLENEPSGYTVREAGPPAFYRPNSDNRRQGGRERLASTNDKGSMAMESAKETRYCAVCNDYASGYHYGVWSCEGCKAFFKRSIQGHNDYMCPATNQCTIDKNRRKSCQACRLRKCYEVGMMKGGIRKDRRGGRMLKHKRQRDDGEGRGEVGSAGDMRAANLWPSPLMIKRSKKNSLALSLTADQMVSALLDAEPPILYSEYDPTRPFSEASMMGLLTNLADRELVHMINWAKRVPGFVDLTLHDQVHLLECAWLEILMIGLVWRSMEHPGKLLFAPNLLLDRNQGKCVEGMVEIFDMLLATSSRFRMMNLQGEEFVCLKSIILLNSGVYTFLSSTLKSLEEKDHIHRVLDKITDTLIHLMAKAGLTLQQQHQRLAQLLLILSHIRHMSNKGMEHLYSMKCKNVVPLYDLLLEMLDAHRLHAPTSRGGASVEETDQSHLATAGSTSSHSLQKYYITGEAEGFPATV
Nature of the series: Agonist activity at estrogen receptor alpha (unknown origin).

For series [4], the target named is T2, Peroxisome proliferator-activated receptor delta (Homo sapiens, UniProt Q03181).
T2 sequence (Q03181 whole entry): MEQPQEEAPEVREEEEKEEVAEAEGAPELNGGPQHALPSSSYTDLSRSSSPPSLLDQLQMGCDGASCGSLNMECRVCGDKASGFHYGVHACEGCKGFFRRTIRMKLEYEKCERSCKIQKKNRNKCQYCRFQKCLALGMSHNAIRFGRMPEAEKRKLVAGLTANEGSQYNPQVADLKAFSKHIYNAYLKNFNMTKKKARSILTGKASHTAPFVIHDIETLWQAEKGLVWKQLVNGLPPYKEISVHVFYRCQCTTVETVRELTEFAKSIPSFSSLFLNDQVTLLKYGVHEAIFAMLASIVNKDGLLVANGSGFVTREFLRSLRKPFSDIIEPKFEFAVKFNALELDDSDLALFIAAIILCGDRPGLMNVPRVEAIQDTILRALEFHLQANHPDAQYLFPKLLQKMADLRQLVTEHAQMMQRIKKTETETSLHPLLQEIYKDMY
Nature of the series: Agonist activity at PPARdelta (unknown origin).

Series [5] addresses T3, Bile acid receptor (Rattus norvegicus) (UniProt Q62735).
T3 sequence (whole entry): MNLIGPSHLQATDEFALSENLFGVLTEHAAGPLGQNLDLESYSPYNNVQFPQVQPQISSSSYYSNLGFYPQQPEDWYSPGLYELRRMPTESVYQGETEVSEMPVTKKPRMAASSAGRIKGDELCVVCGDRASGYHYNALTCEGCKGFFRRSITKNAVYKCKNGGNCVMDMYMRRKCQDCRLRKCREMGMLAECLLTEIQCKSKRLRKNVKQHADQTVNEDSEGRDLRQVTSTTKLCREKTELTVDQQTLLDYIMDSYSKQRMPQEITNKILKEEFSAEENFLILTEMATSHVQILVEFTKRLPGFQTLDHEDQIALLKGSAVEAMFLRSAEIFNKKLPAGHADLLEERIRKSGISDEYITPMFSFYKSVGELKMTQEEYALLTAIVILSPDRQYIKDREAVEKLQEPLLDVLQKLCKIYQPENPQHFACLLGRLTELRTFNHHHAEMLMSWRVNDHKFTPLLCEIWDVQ
Nature of the series: In vivo activation of FXR in male Sprague-Dawley rat assessed as fold increase in FGF15 level at 5 mg/kg, po administered once daily for 14 days measured at 6 hrs by ELISA. The series is classed as functional, organism-based. The following applies: time 14.0 day.

Series [6] in a line: Half-life in male C57BL/6 mouse at 2 mg/kg, iv measured by LC-MS/MS analysis. Particulars: in vivo. In kind it is ADME, organism-based.
A short description of series [7]: Half-life in male Beagle dog at 1 mg/kg, iv measured by LC-MS/MS analysis. In kind it is ADME, organism-based, Canis lupus familiaris. The following applies: in vivo.
Series [8] is described as follows: Drug recovery in brain of male Sprague-Dawley rat at 4.5 mg/kg, po administered as C14-lableled compound and assessed as radioactivity and measured at 0.25 hrs. In kind it is ADME, organism-based. The following applies: in vivo, BLD = below limit of detection.
Series [9] in a line: Drug recovery in lung of male Sprague-Dawley rat at 4.5 mg/kg, po administered as C14-lableled compound and assessed as radioactivity and measured at 0.25 hrs. Particulars: in vivo. In kind it is ADME, organism-based.
Series [10] is described as follows: Drug recovery in stomach of male Sprague-Dawley rat at 4.5 mg/kg, po administered as C14-lableled compound and assessed as radioactivity and measured at 0.25 hrs. Particulars: in vivo. In kind it is ADME, organism-based.
Series [11] is described as follows: Drug recovery in ileum of male Sprague-Dawley rat at 4.5 mg/kg, po administered as C14-lableled compound and assessed as radioactivity and measured at 1 hr. In kind it is ADME, organism-based. The following applies: in vivo.
A short description of series [12]: Drug recovery in heart of male Sprague-Dawley rat at 4.5 mg/kg, po administered as C14-lableled compound and assessed as radioactivity and measured at 6 hrs. In kind it is ADME, organism-based. The following applies: in vivo, BLD = below limit of detection.
Series [13] can be described thus: Drug recovery in spleen of male Sprague-Dawley rat at 4.5 mg/kg, po administered as C14-lableled compound and assessed as radioactivity and measured at 6 hrs. The series is classed as ADME, organism-based. Particulars: in vivo, BLD = below limit of detection.
Series [14] in a line: Drug recovery in brain of male Sprague-Dawley rat at 4.5 mg/kg, po administered as C14-lableled compound and assessed as radioactivity and measured at 24 hrs. The series is classed as ADME, organism-based. The following applies: in vivo, BLD = below limit of detection.
A short description of series [15]: Ratio of drug level in heart to plasma in male Sprague-Dawley rat at 4.5 mg/kg, po administered as C14-lableled compound and measured at 0.25 to 6 hrs. The series is classed as ADME, organism-based. Particulars: other tissue, time 0.25-6 hrs.
Series [16] can be described thus: Ratio of drug level in skin to plasma in male Sprague-Dawley rat at 4.5 mg/kg, po administered as C14-lableled compound and measured at 0.25 to 6 hrs. The following applies: other tissue, time 0.25-6 hrs. The series is classed as ADME, organism-based.

With `O=C(O)c1ccc2c(c1)Oc1ccc(OCc3c(-c4c(Cl)cccc4Cl)noc3C3CC3)nc1C1(CC1)C2`, the exposure AUC(0-t) in series [1] came out at 1180 ng·h/mL; in series [2], 473 ng·h/mL. Further, in [3], the clearance worked out at 35.3 mL/min/kg. Also, the outcome in the series with Mus musculus was Active. Moreover, the EC50 (on Estrogen receptor; in series [4]) was above 10 µM throughout. In addition, the fold change (FC) in series [5] came to 18. Moreover, the half-life was 0.47 h in [6] and 2.97 h in series [7]. For the same compound, the Drug recovery entry in series [8] is “Bld”; in [9] it was 868 ngequiv/g; in series [10], 3213 ngequiv/g; in series [11] it was 1553 ngequiv/g; in [12], “Bld”; in series [13] it was “Bld”. The Drug recovery result in [14] is listed as “Bld”. The values for the Ratio in series [15] and in series [16] were 1 and 0.56, respectively.

As a reminder, the AUC(0-t) is exposure summed from dosing to a finite time, without extrapolation to infinity. Read a low AUC(0-t) as low exposure. Usually clearance stands for the volume of plasma or blood freed of the substance per unit of time. Low readings indicate inefficient removal, high ones efficient removal. By EC50 is commonly meant the midpoint of the concentration-response curve. The low end stands for greater potency, the high end for weaker potency. For orientation: half-life means the time needed for the level to fall by half in the phase considered. Read a low half-life as rapid decline.
